Experimental data reported in patent US20080261980A1, “Use of Thiazolidinone Derivatives as Antiangiogenic Agents” (Cell Therapeutics, Inc., priority 2004, published 2008).

Columns and labels:
[1] = target: T1, Biot-HIF-1α786-826/GST-p300323-423 (Homo sapiens, UniProt Q09472); test: Primary biochemical assay for inhibition of the Hif-1α/p300 interaction (DELFIA fluorescence assay); format: binding; settings: biotinylated Hif-1α 786-826 / GST-p300 323-423, mean of two independent experiments
T1 construct: the p300 region ranging from amino acids 323 to 423; Hif-1α fragment corresponding to C-terminal 786-826 amino acids; made in house; host or cells: E. coli BL21 (DE3), vector pGEX-4T-1
Method: Primary Biochemical Assay for the Inhibition of Biot-HIF-1α^786-826/GST-p300^323/423
The compounds were evaluated for their ability to inhibit the interaction between Hif-1α and p300 using a fluorescence assay (DELFIA™). The procedure described by Freedman S J at al., Nature Structural Biology 2003, 10 (7), 504-512 was suitably modified.
The human biotinylated Hif-1α fragment corresponding to C-terminal 786-826 amino acids (Biotinylated Hif-1α^786-826) was obtained from AnaSpec Inc (San Jose, Calif., USA) and used without further purifications.
A construct expressing the GST-p300^323-423 fragment was transformed in the BL21 strain (DE3) of E. coli. Said construct was obtained by cloning in the expression vector pGEX-4T-1 (Amersham No. 27-45-80-01) the DNA sequence which encodes for the p300 region ranging from amino acids 323 to 423; the DNA sequence was obtained by PCR (Polymerase Chain Reaction). Protein expression was induced with 1 mM isopropyl-1-thio-13-D-galactopyranoside (IPTG). The bacteria were lysed by sonication in the presence of a suitable buffer (50 mM Tris.HCl pH 8.00, 100 mM NaCl, 0.1 mM ZnSO4, 1 mM DTT, 0.1 mg/ml lysozyme and a tablet of Complete EDTA-free Protease Inhibitor Cocktail Tablets (Roche, catalogue number 1 873 580)) and the GST fusion protein present in the soluble fraction was purified on a Glutathione-Sepharose 4B resin (Amersham Biosciences; no. 27-4574-01). The protein final concentration was determined according to Bradford with the Biorad assay (Bradford M., Anal. Biochem., 72, 248, (1976)) and sample purity was evaluated by SDS-PAGE. The samples were stored at −80° C. in 50% glycerol.
The assay was carried out using NUNC Maxisorp 96-well plates as follows.
C96 NUNC Maxisorp plates (from Nunc, product No. 446612) were incubated overnight with streptavidin (Sigma; product No. S 4762) at a final concentration of 1 μg/ml in PBS buffer (Phosphate Buffered Saline 10 mM sodium phosphate, 150 mM sodium chloride pH 7.4). Each well was subsequently washed with 3×300 μl of TBST buffer (50 mM Tris-HCl pH 8.0, 150 mM NaCl, 0.05% (v/v) Tween 20). Each well was then added with 100 μl of a 10 nM solution of biotinylated Hif-1α^786-826 in TBSB (50 mM Tris-HCl pH 8.0, 150 mM NaCl, 5% (w/v) BSA (Sigma, product No. A 2153)) and incubated for 1 h at 25° C. In the last row of each plate, TBSB buffer only was added. Each well was subsequently washed with 3×300 μl of TBST buffer. The thus prepared plate represented the assay plate.
Separately, a plate (daughter plate) containing in each well 10 μl of each test compound dissolved in DMSO to a concentration of 10 μM was prepared. This plate was added with 100 μl of a 111 pM solution of GST-p300^323-423 diluted in the incubation buffer (TBSB added with 0.1% (v/v) Tween 20, 0.5 mM DTT, 10 μM ZnCl2) and the whole was mixed. 100 μl of the mixture contained in the daughter plate was immediately transferred to the assay plate.
Each daughter plate was prepared with 80 different compounds at a 10 μM concentration, safe for the last two well rows, wherein each well was added with 10 μl of DMSO. These two rows represented the positive (row 11, +Hif-1) and negative (row 12, −Hif-1) controls.
After incubation for 1 h at 25° C., each well was washed with 3×300 μl of TBST buffer (50 mM Tris-HCl pH 8.0, 150 mM NaCl, 0.05% (v/v) Tween 20). Each well was then added with 60.8 ng of an europium-labelled anti-GST antibody (DELFIA Eu-N1 labeled; Perkin Elmer; product no. A D 0251) dissolved in 100 μl of TBST buffer containing 10 μM ZnCl2. After incubation for 1 h at room temperature, each well was washed with 3×300 μl of TBST buffer, then 100 μl of signal amplification solution (Enhancement Solution, Perkin Elmer product No. 1244-105) was added.
The plates were then read using a FUSION alpha-FP-HT reader (Perkin Elmer) in fluorescence mode for time resolution.
The activity of the compounds was calculated as follows. […]

[2] = system: VEGF promoter (rat VEGF gene promoter-luciferase reporter in Hep3B cells); test: Luciferase assay in Hep3B-VEGF Luciferase cells, hypoxia induced by deferoxamine; format: cell-based, human; settings: deferoxamine about 100 μM, 18-20 hours, 50% inhibition of the luciferase signal
Method: (§1) The compounds having inhibitory activity in the Hif-1a/p300 assay described above were evaluated using a cellular test on genetically modified human hepatocarcinoma Hep3B cells (Hep3B-VEGFLuciferase) in order to stably express a vector in which the Open Reading Frame of firefly Luciferase is under the control of the rat VEGF gene promoter.
Hif-1 induction by deferoxamine (which causes hypoxia) induces luciferase transcription through activation of the VEGF promoter, which in turn increases luciferase activity, which can be measured with a commercially available kit. The compounds interfering with the Hif-1a/p300 complex inhibit Hif-dependent luciferase activation, resulting in a reduction of luciferase activity. Therefore, this assay allows to evaluate the activity of the compounds towards the VEGF promoter, which is essential to VEGF production and subsequent tumor angiogenesis.
(§2) The Hep-3B-VEGF Luciferase cell line was obtained according to the following procedure.
(§3) Human hepatocarcinoma cells Hep-3B (ATCC reference No. HB-8064) were seeded onto 6-well plates at a concentration of 2.5×10^5 cells/well in 2 ml DMEM/10% FCS and the following day were transfected using Fugene 6 (Roche Biochemicals®). In each well, the transfection mixtures contained 6 μl of the transfection reagent Fugene 6, 1 μg of the pxp2-VEGF-luciferase reporter plasmid (VEGF rat promoter, NCBI GenBank No. of accession U22373, Levy et al., J. Biol. Chem. 270 (22), 13333-13340, 1995), and 10 ng of pcDNA3.1(+)plasmid (INVITROGEN) which makes the cells resistant to neomycin. Transfection was carried out according to the manufacturer's instructions.
(§4) A suitable cell population (phenotypically resistant to neomycin) was selected by means of a cloning approach based on the “dilution limit” procedure (Sambrook J., Fritsch E. F. and Maniatis T. (1989) Molecular Cloning, A Laboratory Manual; Cold Spring Harbor Laboratories). The subsequent assays for Luciferase expression/activity (Luciferase assay) and for the quantification of secreted VEGF in the supernatant (ELISA secreted VEGF test) were carried out with the stably transfected selected cells.
(§5) The following experimental protocol was used:
(§6) Day 1. Hep-3B-VEGF Luciferase cells were seeded onto “blank” 96-wells plates (Greiner) at a density of 1×10^4 cells/well/125 μl of medium, then left to adhere overnight in thermostat (37° C./5% CO2).
(§7) Day 2. 75 μl of “3.2× working solutions” of compound (previously prepared in culture medium so that the DMSO concentration is 1.6% v/v) were added to the cells (partial volume/well=200 μl, partial concentration of compound=1.2×, partial concentration of DMSO=0.6%). After 1 hour incubation in thermostat, hypoxia was induced chemically by addition of 40 μl/well of a 6× (600 μM) stock solution of deferoxamine (final volume/well=240 μl, final concentration of compound=1×, final concentration of DMSO=0.5%, final concentration of deferoxamine=1×≈100 μM). The plates were then thermostated for further 18-20 hours.
(§8) Day 3. The Luciferase assay and the secreted VEGF ELISA test were carried out as follows.
Quantification of the expression of the Luciferase reporter gene was performed by means of the Bright Glo Reagent (Promega). After removing the supernatant and washing once with PBS, 40 μl/well of Bright Glo Reagent were added to blank 96-well plates with Hep3B/VEGF-Luciferase cells. The expression levels of the reporter gene were determined by reading the plates with a luminometer.
(§9) IC50 values (concentration of the compound that causes 50% inhibition of the luciferase signal or 50% reduction of secreted VEGF) for some compounds of the invention are reported in table 2.

[3] = system: secreted VEGF (Hep3B/VEGF Luciferase cells); test: Secreted VEGF ELISA test in Hep3B-VEGF Luciferase cells, hypoxia induced by deferoxamine; format: cell-based; settings: Homo sapiens, deferoxamine about 100 μM, 18-20 hours, 50% reduction of secreted VEGF
Method: as §1, §2, §3, §4, §5, §6, §7, §8
Quantification of secreted VEGF was performed using the “DuoSet Elisa Development System human VEGF” kit (R&D Systems). […] of the supernatant from the “blank” 96-well plates with the cells of the Hep3B/VEGF Luciferase clone were transferred into transparent 96-well plates (Maxisorp) and assayed according to the indications of the kit manufacturer.
as §9

T1 sequence (Q09472 323-423): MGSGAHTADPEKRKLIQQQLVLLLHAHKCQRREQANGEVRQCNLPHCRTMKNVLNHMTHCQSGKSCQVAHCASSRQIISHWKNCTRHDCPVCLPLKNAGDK

SMILES | IC50 [1] | IC50 [2] | IC50 [3]
COC(=O)c1ccc(-c2ccc(/C=C3/SC(=S)N(CCc4ccccc4)C3=O)o2)cc1 [Compound 20, 4-{5-[3-[2-(phenyl)ethyl]-4-oxo-2-thioxo-thiazolidine-5-ylidenemethyl]-furan-2-yl}benzoic acid methyl ester] | 4.2 µM | 10.5 µM | 0.46 µM
COC(=O)c1ccc(-c2ccc(/C=C3/SC(=S)N(Cc4ccc(C)cc4)C3=O)o2)cc1 [Compound 9, 4-{5-[3-(4-methylbenzyl)-4-oxo-2-thioxo-thiazolidine-5-ylidenemethyl]-furan-2-yl}benzoic acid methyl ester] | 5.9 µM | > 5 µM | 0.18 µM
NS(=O)(=O)c1ccc(-c2ccc(/C=C3/SC(=S)N(Cc4ccccc4)C3=O)o2)cc1 [Compound 7, 4-[5-(3-benzyl-4-oxo-2-thioxo-thiazolidine-5-ylidenemethyl)-furan-2-yl]benzenesulfonamide] | 4.9 µM | 3.16 µM | 0.87 µM
COC(=O)c1ccc(-c2ccc(/C=C3/SC(=S)N(CCc4ccc(OC)c(OC)c4)C3=O)o2)cc1 [Compound 21, 4-{5-[3-[2-(3,4-dimethoxyphenyl)ethyl]-4-oxo-2-thioxo-thiazolidine-5-ylidenemethyl]-furan-2-yl}benzoic acid methyl ester] | 7.4 µM | 4.86 µM | 0.24 µM
N#Cc1ccc(-c2ccc(/C=C3/SC(=S)N(CCc4ccccc4)C3=O)o2)cc1 [Compound 19, 4-{5-[3-(2-phenyl)ethyl-4-oxo-2-thioxo-thiazolidine-5-ylidenemethyl]-furan-2-yl}benzonitrile] | 1.4 µM | 7.29 µM | 0.33 µM
COC(=O)c1ccccc1-c1ccc(/C=C2/SC(=S)N(Cc3ccccc3)C2=O)o1 [Compound 1, 2-[5-(3-benzyl-4-oxo-2-thioxo-thiazolidine-5-ylidenemethyl)-furan-2-yl]benzoic acid methyl ester] | 8.6 µM | 6.66 µM | 0.37 µM

Now from value to compound:

IC50 [1] | IC50 [2] | IC50 [3] | SMILES
14.7 µM | 9.64 µM | 0.58 µM | COC(=O)c1ccc(-c2ccc(/C=C3/SC(=S)N(Cc4cccs4)C3=O)o2)cc1 [Compound 13, 4-{5-[3-(2-thienyl)methyl-4-oxo-2-thioxo-thiazolidine-5-ylidenemethyl]-furan-2-yl}benzoic acid methyl ester]
11.1 µM | 2.07 µM | 0.7 µM | COC(=O)c1ccc(-c2ccc(/C=C3/SC(=S)N(CCCN4CCOCC4)C3=O)o2)cc1 [Compound 16, 4-{5-[3-(morpholine-4-yl-propyl)-4-oxo-2-thioxo-thiazolidine-5-ylidenemethyl]-furan-2-yl}benzoic acid methyl ester]
29.9 µM | 3.17 µM | 0.49 µM | COc1ccc(CCN2C(=O)/C(=C\c3ccc(-c4ccc(C#N)cc4)o3)SC2=S)cc1OC [Compound 18, 4-{5-[3-[2-(3,4-dimethoxyphenyl)ethyl]-4-oxo-2-thioxo-thiazolidine-5-ylidenemethyl]-furan-2-yl}benzonitrile]
